Legend:
[1] = tested on: male C57/BL6 mice; test: Chronic EAE (MOG35-55), clinical symptoms; format: in vivo; conditions: chronic model, FIG. 1C
Method: C57BL/6 mice were immunized with 100 μg of MOG35-55 as described above. Mice also received two doses of pertussis toxin (150 ng/mouse) on 0 and 2 dpi.
GTB was mixed in 0.5% methylcellulose (MC) and EAE mice were gavaged 100 μL GTB-mixed MC once daily using gavage needle. Therefore, control EAE mice received only MC as vehicle.
While female SJL/J mice are used to induce RR-EAE, chronic form of EAE is modeled in male C57/BL6 mice upon immunization with MOG35-55. Therefore, the inventor examined the efficacy of GTB in suppressing the disease process of chronic EAE.

[2] = tested on: iNOS; test: Expression of iNOS in spinal cord of EAE mice (RT-PCR); format: in vivo; conditions: FIG. 4D-F
Method: (§1) Total RNA was isolated from splenic T cells and spinal cord by using the RNeasy mini kit (Qiagen, Valencia, Calif.) and from spleen and cerebellum by using the Ultraspec-II RNA reagent (Biotecx laboratories, Inc, Houston, Tex.) following manufacturer's protocol. To remove any contaminating genomic DNA, total RNA was digested with DNase. Semi-quantitative RT-PCR was carried out using a RT-PCR kit from Clonetech (Mountain View, Calif.). Briefly, 1 μg of total RNA was reverse transcribed using oligo(dT)12-18 as primer and MMLV reverse transcriptase (Clontech) in a 20 μL reaction mixture. The resulting cDNA was appropriately-diluted, and diluted cDNA was amplified using Titanium Taq DNA polymerase and following primers. Amplified products were electrophoresed on a 1.8% agarose gels and visualized by ethidium bromide staining.
(§2) The relative expression of each gene with respect to GAPDH was measured after scanning the bands with a Fluor Chem 8800 Imaging System (Alpha Innotech, San Leandro, Calif.).
Real-time PCR analysis was performed using the ABI-Prism7700 sequence detection system (Applied Biosystems, Foster City, Calif.). […] Data were processed by the ABI Sequence Detection System 1.6 software and analyzed by ANOVA. […]

[3] = tested on: spinal cord of EAE mice; test: Luxol fast blue staining for myelin, spinal cord of EAE mice; format: in vivo; conditions: FIG. 5A-B
Method: Sections were stained with Luxol fast blue for myelin as described earlier. Slides were assessed in a blinded fashion for demyelination by three examiners using the following scale: 0, normal white matter; 1, rare foci; 2, a few areas of demyelination; and 3, large areas of demyelination. At least six serial sections of each spinal cord from each of five mice per group were scored and statistically analyzed by ANOVA.
Demyelination is the most important pathological feature in MS, which is also modeled in EAE animals. Therefore, the inventor examined whether GTB protected EAE mice from demyelination. The inventor stained spinal cord sections by luxol fast blue (LFB) for myelin and observed widespread demyelination zones in the white matter (FIG. 5A-B). […] In contrast, vehicle was unable to restore myelin level in spinal cord of EAE mice (FIG. 5A-B). To confirm this finding, the inventor monitored the expression of […] myelin genes, myelin basic protein (MBP) and proteolipid protein (PLP), and observed a marked loss of mRNA expression of these genes in the spinal cord of untreated EAE mice compared to control mice (FIG. 5C-E).

[4] = tested on: proteolipid protein (PLP); test: Myelin gene mRNA expression in spinal cord of EAE mice: PLP; format: in vivo; conditions: FIG. 5C-E
Method: as §1, with “The resulting cDNA was appropriately-diluted, and diluted cDNA was amplified using Titanium Taq DNA polymerase and following primers. Amplified products were electrophoresed on a 1.8% agarose gels and visualized by ethidium bromide staining.” left out
as §2
Real-time PCR analysis was performed using the ABI-Prism7700 sequence detection system (Applied Biosystems, Foster City, Calif.). […] Data were processed by the ABI Sequence Detection System 1.6 software and analyzed by ANOVA.
Demyelination is the most important pathological feature in MS, which is also modeled in EAE animals. […] To confirm this finding, the inventor monitored the expression of […] myelin genes, myelin basic protein (MBP) and proteolipid protein (PLP), and observed a marked loss of mRNA expression of these genes in the spinal cord of untreated EAE mice compared to control mice (FIG. 5C-E).

[5] = tested on: Tyrosine hydroxylase (TH); test: MPTP mouse model of PD, Western blot of nigral TH; format: in vivo, mice; conditions: FIG. 9A-B
Method: Six- to eight-week old C57BL/6 mice were purchased from Harlan (Indianapolis, Ind.). For acute MPTP intoxication, mice received four intraperitoneal (i.p.) injections of MPTP-HCl (18 mg/kg of free base; Sigma Chemical Co., St. Louis, Mo.) in saline at 2-h intervals. Control animals received only saline.
GTB was mixed in 0.5% methylcellulose (MC) and from 3 h after the last injection of MPTP, mice were gavaged 100 μL GTB-mixed MC once daily using gavage needle. Therefore, control MPTP mice received only MC as vehicle.
Immunoblot analysis for DJ-1 and TH was carried out. Briefly, cell homogenates were electrophoresed, proteins were transferred onto a nitrocellulose membrane, and bands were visualized with an Odyssey infrared scanner after immunolabeling with respective primary antibodies followed by infra-red fluorophore-tagged secondary antibody (Invitrogen).
Tyrosine hydroxylase (TH), the key enzyme responsible for the production of dopamine, is present in dopaminergic neurons. MPTP-intoxication led to approximately 60% loss of nigral TH (FIG. 9A-B) compared with saline-injected controls.

## O=C(OCC(COC(=O)c1ccccc1)OC(=O)c1ccccc1)c1ccccc1 [GTB, glyceryl tribenzoate]
[1]
  clinical symptoms of EAE: strongly inhibited the clinical symptoms
[2]
  expression of iNOS in the spinal cord: dramatically reduced the expression
[3]
  myelin level in the spinal cord (LFB): remarkably restored myelin level
[4]
  PLP mRNA expression in the spinal cord: significant restoration of myelin gene mRNA expression
[5]; GTB 25 mg/kg body wt/d
  nigral TH: protection was evident
[5]; oral GTB in MPTP-intoxicated mice
  nigral TH: protected nigral TH in a dose-dependent manner

Source: patent US9968582B2, “Use of a benzoate containing composition in urea cycle disorders and neurodegenerative disorders” (Rush University Medical Center, priority 2014, dated 2018)
